Measured values from patent publication US6984659B2, “2-pyrrolidinone derivatives substituted at position 4 for reducing the extracellular glutamate level” (priority 1997, dated 2006).
“Also recorded” adds a separate entry of the source.

Legend:
[1] = tested on: retinal gangliocytes (neurons in the ganglion cell layer); format: in vivo
Method: The following results were found:
10 rats were treated with 0.9% NaCl i.p. at the start of a unilateral one-hour intraocular pressure increase. After 6 hours, the treatment was again carried out with 0.9% NaCl i.p. After 14 days, the rats were sacrificed, and the retinal gangliocytes were investigated. Compared with the respective control eye, only 17.4% (±4%) of the retinal gangliocytes had survived.
In the test group, likewise of 10 rats, 50 mg/kg 8-azaspiro[5,4]decan-9-one was administered i.p. at the start of a unilateral one-hour intraocular pressure increase. The compound was administered again in a dose of 50 mg/kg 6 hours after the intraocular pressure increase. After 14 days, the rats were sacrificed, and the retinal gangliocytes were investigated. It emerged that, compared with the respective control eye, 35% (±7%) of the retinal gangliocytes survived.
The method in brief: Retinal ischemia in the left eye was induced by elevating the intraocular pressure above systolic blood pressure for one hour. Retinal ischemia was confirmed by whitening of the fundus. In the first experiment 10 rats received 50 mg/kg GBP intraperitoneally immediately prior to ischemia and 50 mg/kg 6 hours after reperfusion, 10 rats received 50 mg/kg GBP-L i.p. immediately prior to ischemia and 50 mg/kg 6 hours after reperfusion, and 10 rats received vehicle alone. Ischemic damage was histologically quantified 14 days after ischemia: Both eyes were enucleated and immersed in 4% buffered formaldehyde for 24 hours. Retinal wholemounts were made and stained with cresyl violet, (0.1%, pH 4.5 for 30 min). Ischemic damage was quantified by counting the number of neurons in the ganglion cell layer in a masked fashion. […] This control eye was not subjected to ischemia.
Statistically, the ganglion cell numbers were evaluated as follows: In contrast to the usual ANOVA where the ratio of the mean squares between the treatment groups and the error mean square is used in the F-statistic, the nested design applied here requested another approach. Apart from the factor medication, there were three other sources of variation in our example, (1) the rat, (2) the eye, and (3) the replications of cell counting within each eye. To test for the medication effect the mean square for rat within medication has to be used as denominator. The variability of the eye is then contained in both the numerator (with all contributions to the variance) and the denominator (with the contributions to the variance except that of the factor medication). Thus, the variability of the eye is eliminated in the end and the variance of the factor medication is assessed appropriately in the F-test. The used model was: cell counts=med rat (med) eye(med*rat).
In order to evaluate the therapeutic window of GBP-L as an antiischemic drug (Pulsinelli et al. 1997) its time-effect relationship was tested at 75 mg/kg given twice prior to or after the end of ischemia with an interval of 6 hours.
The dose dependence of the neuroprotective effect of GBP-L was established using 25 mg/kg, 50 mg/kg and 75 mg/kg (see FIG. 7) given twice three hours and nine hours after the end of ischemia.

[2] = tested on: potassium-evoked release of [^3H]-noradrenaline; test: potassium-evoked release of [^3H]-noradrenaline from human neocortical slices (superfusion); format: cell-based; settings: human neocortex slices
From the text: (§1) The effects of GBP and GBP-L were compared by a very similar approach using rat and human neocortical slices.
(§2) Note that the deviations indicate confidence intervals (CI95), not standard errors.

[3] = tested on: potassium-evoked release of [^3H]-noradrenaline; settings: rat neocortex slices; Freiman et al. 2001, FIG. 1.0; cited from earlier work
[4] = tested on: mitochondrial KATP channels; test: mitochondrial KATP channels, depression of the mitochondrial membrane potential; format: biochemical
Method: The mode of action of GBP-L and GBP was tested with regard to mitochondrial KATP channels (Szewczyk and Marban 1999). […] Effects of GBP-L on the mitochondrial membrane potential were already seen at 5 μM. […] Thus, the neuroprotective effect of GBP-L seems to be mediated predominantly through mitochondrial KATP channels.

[5] = tested on: potassium-evoked release of [^3H]-noradrenaline; test: potassium-evoked release of [^3H]-noradrenaline from rat neocortex slices (superfusion); format: cell-based; settings: rat neocortical slices
From the text: as §1, §2

[6] = tested on: extracellular glutamate level; test: superfusion experiments on rat brain slices (striatum), glutamate in superfusate by HPLC; format: cell-based
Method: A solution of gabapentin (100 μM) in physiological buffer (composition below) with a pH of 7.4 was prepared and irradiated with ultraviolet light (260 and 330 nanometers) at 37° C. for two hours. As described in Kearney A. S. et al., International Journal of Pharmaceutics, 78 (1992), 25–34, this slowly produces the lactam 8-azaspiro[5,4]decan-9-one. Because of the slow reaction rate, a yield of about 1% is assumed in accordance with Kearney et al. (1992), which corresponds to a 1 μM solution.
The activity of this solution in reducing the extracellular glutamate level was shown by means of superfusion experiments on rat brain slices. Slices with a thickness of 350 μm from the rat striatum were used for this. In each case, two slices were employed in a superfusion chamber with an extremely small dead volume, about 100 μl. Physiological buffer (concentrations in mM: NaCl 121, KCl 1.8, CaCl2, 1.3, MgSO4 1.2, NaHCO3 25, […] 1.2, glucose 11, pH 7.4, 95% O2/5% CO2-saturated) is then passed over them at 37° C. After a preliminary perfusion, which serves in particular to remove tissue particles and amino acids released by the injury to the tissue, superfusate fractions are collected at a flow rate of 400 to 800 μl every five minutes. […] The superfusates obtained are filtered (0.45 μm pore size) and the amino acid concentrations are determined by HPLC. […]

[7] = tested on: electrically evoked release of Glu; test: electrically evoked [^3H]-Glu release from [^3H]-Gln-loaded hippocampus slices; format: cell-based, rat; settings: 540 pulses of 4 ms, 6 Hz, 60 mA, room temperature, 100 μM PDC, added 15 min before second stimulation

Structure (SMILES)	neuroprotective effect / number of surviving neurons (in words) ([1]; 50 mg/kg i.p. immediately prior to ischemia and 6 hours after reperfusion, 14 days, listed as gabapentin)	rate of surviving neurons ([1]; 50 mg/kg i.p. twice, ganglion cell layer neurons, 14 days after ischemia, pure ischemia 17.5%) [%]	K^+-evoked [^3H]-NA release (in words) [2]	potassium-evoked release of [^3H]-noradrenaline (in words) [3]	activity at mitochondrial KATP channels (in words) [4]	K^+-evoked [^3H]-NA release (in words) [5]	difference in glutamate between treated and comparative samples ([6]; gabapentin solution (100 μM) not irradiated, no lactam)	retinal gangliocytes survived compared with the respective control eye ([1]; 50 mg/kg i.p. at start of one-hour intraocular pressure increase and again 6 hours after, 14 days, NaCl group 17.4%) [%]	mortality in the 14 days after the test ([1]; 50 mg/kg i.p. twice, 10 rats)	time-effect relationship: neuroprotective action maintained after recirculation ([1]; 75 mg/kg given twice prior to or after the end of ischemia, interval 6 hours, another strain of rats)	slope of regression line of dose-effect relationship ([1]; 25, 50 and 75 mg/kg given twice, three and nine hours after the end of ischemia)	electrically evoked release of Glu (in words) [7]	electrically evoked release of Glu (in words) ([7]; listed as gabapentin lactam)	concentration at which effects on the mitochondrial membrane potential were already seen [4] [µM]	EC50 ([4]; read-out: half-maximal depression of the mitochondrial membrane potential) [µM]	extracellular glutamate concentration found in superfusate ([6]; rat striatum slices flushed with approximately 1 μM solution, control tests 0.24 μM) [µM]
NCC1(CC(=O)O)CCCCC1 [GBP, gabapentin, reference compound]	no protective effect whatever	17.5	inhibited similarly	inhibitory effects	hardly effective	inhibited similarly	no difference could be found									
O=C1CC2(CCCCC2)CN1 [GBP-L, 8-azaspiro[5,4]decan-9-one]			inhibited similarly		potent activator	inhibited similarly		35	no animal died	maintained for more than three hours after recirculation	0.41	seems not to be influenced	not influenced; also recorded: unaffected	5	85	0.12
